The nature of series [1]: Rat plasma half-life assay. The class given is in vitro ADME. As to conditions: 37° C., LC-MS, read-out: Rat Plasma T½ (converted). The procedure: (§1) B. Human and Rat Plasma Half-Life Assay
(§2) 50 μL was removed at various times, like at 0, 1, 2, 3, 4, 8, 24, 32, 48, 56, 72 hours, mixed with 5 μL formic acid and 150 μL acetonitrile in a microcentrifuge tube, vertexed, and centrifuged for 10 minutes at 10K rpm. The supernatant was transferred to an injection vial and analyzed by LC-MS. The LC-MS system consisted of an API4000 mass spectrometer with an ESI probe. Positive ion mode and full scan detection were used. HPLC separation was carried out on a Luna 3μ C8 (2), 2×30 mm column with a gradient from 90% A to 90% B in 10 minutes at a flow rate of 0.3 ml/min. Buffer A was 1% formic acid in water and buffer B was 1% formic acid acetonitrile.

Series [2] can be described thus: Human plasma half-life assay. The class given is in vitro ADME. As to conditions: 37° C., LC-MS, read-out: Human Plasma T½ (converted). The procedure:
as §1, §2

Non-standard residues stand in square brackets, D forms with d. No end group written: not given here. Ac6c = NC1(C(=O)O)CCCCC1; Nle = CCCC[C@H](N)C(=O)O; Ac5c = NC1(C(=O)O)CCCC1; Aib = CC(C)(N)C(=O)O

The values that follow come from patent publication US9072703B2 (Ipsen Pharma S.A.S., priority 2008, dated 2015).

Consider `CC[C@H](C)[C@H](NC(=O)[C@H](CCCCN)NC(=O)[C@H](CC(=O)O)NC(=O)[C@H](CCSC)NC(=O)[C@H](C)NC(=O)[C@@H](NC(=O)C1(NC(=O)[C@H](Cc2ccc(O)cc2)NC(=O)[C@H](CC(=O)O)NC(=O)[C@H](CO)NC(=O)[C@@H](NC(=O)[C@H](Cc2ccccc2)NC(=O)[C@@H](NC(=O)CNC(=O)[C@H](CCC(=O)O)NC(=O)[C@H](C)NC(=O)[C@@H](N)Cc2ccc(O)cc2)[C@@H](C)O)[C@@H](C)CC)CCCC1)[C@@H](C)CC)C(=O)N[C@@H](Cc1c[nH]cn1)C(=O)N[C@@H](CCC(N)=O)C(=O)N[C@@H](CCC(N)=O)C(=O)N[C@@H](CC(=O)O)C(=O)N[C@@H](Cc1ccccc1)C(=O)N[C@H](C(=O)N[C@@H](CC(N)=O)C(=O)N[C@@H](Cc1c[nH]c2ccccc12)C(=O)N[C@@H](CC(C)C)C(=O)N[C@@H](CC(C)C)C(=O)N[C@@H](C)C(=O)N[C@@H](CCC(N)=O)C(=O)N[C@@H](CCCCN)C(=O)NCC(=O)N[C@@H](CCCCN)C(=O)N[C@@H](CS)C(=O)N[C@@H](CC(N)=O)C(=O)N[C@@H](CC(=O)O)C(=O)N[C@@H](Cc1c[nH]c2ccccc12)C(=O)N[C@@H](CCCCN)C(=O)N[C@@H](Cc1c[nH]cn1)C(=O)N[C@@H](CC(N)=O)C(=O)N[C@H](C(=O)NC1(C(=O)N[C@@H](CCC(N)=O)C(N)=O)CCCC1)[C@@H](C)CC)C(C)C` [Example 32, (A5c^11, 41, Cys^33)hGIP(1-42)-NH2], for which the half-life at 0.1 mg/ml in series [1] was 8.8 h; in series [2], 11.5 h.

Consider “YAEGTFISDY[Ac6c]IA[Ac6c]DKIHQQDFVNWLLAQKGKKNDWKHN[Ac6c]TQ-OH [Example 14, (A6c^11, 14, 40)hGIP(1-42)-OH]”, for which the values for the half-life at 0.1 mg/ml in series [1] and in series [2] were 4.8 h and 11.6 h, respectively.

Consider “YAEGTFISDY[Ac5c]IAMDKIHQQDFVNWLLAQKGKKNDWKHNITQA-OH [Example 8, (A5c^11, Ala^43)hGIP(1-43)-OH]”, for which the half-life at 0.1 mg/ml is 2.3 h in series [1] and 7.4 h in series [2].

For the compound “YAEGTF[Ac6c]SDYSIA[Nle]DKIHQQDFVNWLLAQKGKKNDWKHNI[Ac6c]Q-OH [Example 17, (A6c^7, 41, Nle^14)hGIP(1-42)-OH]”, the half-life at 0.1 mg/ml was 1.9 h in series [1] and 6.3 h in series [2].

With `CCCCCCCCCCCCCCCC(=O)NCCCC[C@H](NC(=O)[C@H](CCC(N)=O)NC(=O)[C@@H](NC(=O)[C@@H](NC(=O)[C@H](CC(N)=O)NC(=O)[C@H](Cc1c[nH]cn1)NC(=O)[C@H](CCCCN)NC(=O)[C@H](Cc1c[nH]c2ccccc12)NC(=O)[C@H](CC(=O)O)NC(=O)[C@H](CC(N)=O)NC(=O)[C@H](CCCCN)NC(=O)[C@H](CCCCN)NC(=O)CNC(=O)[C@H](CCCCN)NC(=O)[C@H](CCC(N)=O)NC(=O)[C@H](C)NC(=O)[C@H](CC(C)C)NC(=O)[C@H](CC(C)C)NC(=O)[C@H](Cc1c[nH]c2ccccc12)NC(=O)[C@H](CC(N)=O)NC(=O)[C@@H](NC(=O)[C@H](Cc1ccccc1)NC(=O)[C@H](CC(=O)O)NC(=O)[C@H](CCC(N)=O)NC(=O)[C@H](CCC(N)=O)NC(=O)[C@H](Cc1c[nH]cn1)NC(=O)[C@@H](NC(=O)[C@H](CCCCN)NC(=O)[C@H](CC(=O)O)NC(=O)[C@H](CCSC)NC(=O)[C@H](C)NC(=O)[C@@H](NC(=O)C1(NC(=O)[C@H](Cc2ccc(O)cc2)NC(=O)[C@H](CC(=O)O)NC(=O)[C@H](CO)NC(=O)[C@@H](NC(=O)[C@H](Cc2ccccc2)NC(=O)[C@@H](NC(=O)CNC(=O)[C@H](CCC(=O)O)NC(=O)[C@H](C)NC(=O)[C@@H](N)Cc2ccc(O)cc2)[C@@H](C)O)[C@@H](C)CC)CCCC1)[C@@H](C)CC)[C@@H](C)CC)C(C)C)[C@@H](C)CC)[C@@H](C)O)C(=O)O` [Example 40, [A5c^11, Lys^43(N—C(O)—(CH2)14—CH3)]hGIP(1-43)-OH], the half-life at 0.1 mg/ml in series [1] is 19.3 h; in series [2], 17.2 h.

As to `CCCCCCCCCCCCCCCC(=O)NCCC[C@H](NC(=O)CNC(=O)[C@H](CCCCN)NC(=O)[C@H](CCC(N)=O)NC(=O)[C@H](C)NC(=O)[C@H](CC(C)C)NC(=O)[C@H](CC(C)C)NC(=O)[C@H](Cc1c[nH]c2ccccc12)NC(=O)[C@H](CC(N)=O)NC(=O)[C@@H](NC(=O)[C@H](Cc1ccccc1)NC(=O)[C@H](CC(=O)O)NC(=O)[C@H](CCC(N)=O)NC(=O)[C@H](CCC(N)=O)NC(=O)[C@H](Cc1c[nH]cn1)NC(=O)[C@@H](NC(=O)[C@H](CCCCN)NC(=O)[C@H](CC(=O)O)NC(=O)[C@H](CCSC)NC(=O)[C@H](C)NC(=O)[C@@H](NC(=O)C1(NC(=O)[C@H](Cc2ccc(O)cc2)NC(=O)[C@H](CC(=O)O)NC(=O)[C@H](CO)NC(=O)[C@@H](NC(=O)[C@H](Cc2ccccc2)NC(=O)[C@@H](NC(=O)CNC(=O)[C@H](CCC(=O)O)NC(=O)[C@H](C)NC(=O)[C@@H](N)Cc2ccc(O)cc2)[C@@H](C)O)[C@@H](C)CC)CCCC1)[C@@H](C)CC)[C@@H](C)CC)C(C)C)C(=O)N[C@@H](CCCCN)C(=O)N[C@@H](CC(N)=O)C(=O)N[C@@H](CC(=O)O)C(=O)N[C@@H](Cc1c[nH]c2ccccc12)C(=O)N[C@@H](CCCCN)C(=O)N[C@@H](Cc1c[nH]cn1)C(=O)N[C@@H](CC(N)=O)C(=O)N[C@H](C(=O)N[C@H](C(=O)N[C@@H](CCC(N)=O)C(=O)N[C@@H](Cc1c[nH]cn1)C(=O)O)[C@@H](C)O)[C@@H](C)CC` [Example 41, [A5c^11, Orn^32(N—C(O)—(CH2)14—CH3), His^43]hGIP(1-43)-OH], the half-life at 0.1 mg/ml in series [1] was 22.9 h; in series [2], 6.6 h.

Turning to “YAEGTFISDYSI[Aib][Nle]DKIHQQDFVNWLLAQKGKKNDWKHNITQF-OH [Example 9, (Aib^13, Nle^14, Phe^43)hGIP(1-43)-OH]”, the half-life at 0.1 mg/ml in series [1] is 1.3 h; in series [2], 6.9 h.

Consider “YAEGTF[Ac6c]SDYSIAMDKIHQQDFVNWLLAQKGKKNDWKHNI[Ac6c]Q-OH [Example 16, (A6c^7, 41)hGIP(1-42)-OH]”, for which the results for the half-life at 0.1 mg/ml in series [1] and in series [2] were 1.3 h and 6.5 h, respectively.

`CCCCCCCCCCCC(=O)NCCC[C@H](NC(=O)CNC(=O)[C@H](CCCCN)NC(=O)[C@H](CCC(N)=O)NC(=O)[C@H](C)NC(=O)[C@H](CC(C)C)NC(=O)[C@H](CC(C)C)NC(=O)[C@H](Cc1c[nH]c2ccccc12)NC(=O)[C@H](CC(N)=O)NC(=O)[C@@H](NC(=O)[C@H](Cc1ccccc1)NC(=O)[C@H](CC(=O)O)NC(=O)[C@H](CCC(N)=O)NC(=O)[C@H](CCC(N)=O)NC(=O)[C@H](Cc1c[nH]cn1)NC(=O)[C@@H](NC(=O)[C@H](CCCCN)NC(=O)[C@H](CC(=O)O)NC(=O)[C@H](CCSC)NC(=O)[C@H](C)NC(=O)[C@@H](NC(=O)C1(NC(=O)[C@H](Cc2ccc(O)cc2)NC(=O)[C@H](CC(=O)O)NC(=O)[C@H](CO)NC(=O)[C@@H](NC(=O)[C@H](Cc2ccccc2)NC(=O)[C@@H](NC(=O)CNC(=O)[C@H](CCC(=O)O)NC(=O)[C@H](C)NC(=O)[C@@H](N)Cc2ccc(O)cc2)[C@@H](C)O)[C@@H](C)CC)CCCC1)[C@@H](C)CC)[C@@H](C)CC)C(C)C)C(=O)N[C@@H](CCCCN)C(=O)N[C@@H](CC(N)=O)C(=O)N[C@@H](CC(=O)O)C(=O)N[C@@H](Cc1c[nH]c2ccccc12)C(=O)N[C@@H](CCCCN)C(=O)N[C@@H](Cc1c[nH]cn1)C(=O)N[C@@H](CC(N)=O)C(=O)N[C@H](C(=O)N[C@H](C(=O)N[C@@H](CCC(N)=O)C(=O)N[C@@H](Cc1c[nH]cn1)C(=O)O)[C@@H](C)O)[C@@H](C)CC` [Example 34, [A5c^11, Orn^32(N—C(O)—(CH2)10—CH3), His^43]hGIP(1-43)-OH]: the half-life at 0.1 mg/ml in series [1] was 20.1 h; in series [2] it was 7.5 h.

Turning to `CCCC[C@H](NC(=O)[C@H](C)NC(=O)[C@@H](NC(=O)C1(NC(=O)[C@H](Cc2ccc(O)cc2)NC(=O)[C@H](CC(=O)O)NC(=O)[C@H](CO)NC(=O)[C@@H](NC(=O)[C@H](Cc2ccccc2)NC(=O)[C@@H](NC(=O)CNC(=O)[C@H](CCC(=O)O)NC(=O)[C@H](C)NC(=O)[C@@H](N)Cc2ccc(O)cc2)[C@@H](C)O)[C@@H](C)CC)CCCC1)[C@@H](C)CC)C(=O)N[C@@H](CC(=O)O)C(=O)N[C@@H](CCCCN)C(=O)N[C@H](C(=O)N[C@@H](Cc1c[nH]cn1)C(=O)N[C@@H](CCC(N)=O)C(=O)N[C@@H](CCC(N)=O)C(=O)N[C@@H](CC(=O)O)C(=O)N[C@@H](Cc1ccccc1)C(=O)N[C@H](C(=O)N[C@@H](CC(N)=O)C(=O)N[C@@H](Cc1c[nH]c2ccccc12)C(=O)N[C@@H](CC(C)C)C(=O)N[C@@H](CC(C)C)C(=O)N[C@@H](C)C(=O)N[C@@H](CCC(N)=O)C(=O)N[C@@H](CCCCN)C(=O)NCC(=O)N[C@@H](CCCCN)C(=O)N[C@@H](CCCCN)C(=O)N[C@@H](CC(N)=O)C(=O)N[C@@H](CC(=O)O)C(=O)N[C@@H](Cc1c[nH]c2ccccc12)C(=O)N[C@@H](CCCCN)C(=O)N[C@@H](Cc1c[nH]cn1)C(=O)N[C@@H](CC(N)=O)C(=O)N[C@H](C(=O)N[C@H](C(=O)N[C@@H](CCC(N)=O)C(=O)N[C@@H](Cc1c[nH]cn1)C(=O)O)[C@@H](C)O)[C@@H](C)CC)C(C)C)[C@@H](C)CC` [Example 21, (A5c^11, Nle^14, His^43)hGIP(1-43)-OH], the figures for the half-life at 0.1 mg/ml in series [1] and in series [2] were 2.8 h and 11.1 h, respectively.

Turning to “YAEGTFISDY[Ac5c]IAMDKIHQQDFVNWLLAQKGKKNDWKHNITQT-OH [Example 10, (A5c^11, Thr^43)hGIP(1-43)-OH]”, the half-life at 0.1 mg/ml was 2.1 h in series [1] and 7.9 h in series [2].

For the compound “YAEGTFISDY[Ac6c]IA[Ac6c]DKIHQQDFVNWLLAQKGKKNDWKHNI[Ac6c]Q-OH [Example 11, (A6c^11, 14, 41)hGIP(1-42)-OH]”, the half-life at 0.1 mg/ml in series [1] is 8.6 h; in series [2], 13.1 h.
